Data taken from ChEMBL document CHEMBL1201862, “PubChem BioAssay data set” (2004).
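Step 1: Grow cells in 96-well plates. Step 2: Expose to compound for 48 hours at 5 concentrations. Step 3: Interpolate endpoints linearly; if unreached, use highest concentration. At the GI50, growth is halved.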 Activity calls are given as the source filed them. Rule as the data show it: active = GI50 up to about 1.1 µM and inactive = higher.

Legend:
Experiment in all cases: inhibition of tumour cell growth, NCI panel, 48 h
786-0 = tested on: 786-0
A498 = tested on: A498
A549 = tested on: A549
ACHN = tested on: ACHN
CAKI-1 = tested on: CAKI-1
CCRF-CEM = tested on: CCRF-CEM
COLO 205 = tested on: COLO 205
DLD-1 = tested on: DLD-1
DMS-114 = tested on: DMS-114
DMS-273 = tested on: DMS-273
EKVX = tested on: EKVX
HCC 2998 = tested on: HCC 2998
HCT-116 = tested on: HCT-116
HCT-15 = tested on: HCT-15
HL-60 = tested on: HL-60
HOP-18 = tested on: HOP-18
HOP-92 = tested on: HOP-92
HT-29 = tested on: HT-29
IGROV-1 = tested on: IGROV-1
K562 = tested on: K562
KM-20L2 = tested on: KM-20L2
KM12 = tested on: KM12
LOX IMVI = tested on: LOX IMVI
LXFL 529 = tested on: LXFL 529
M14 = tested on: M14
M19-MEL = tested on: M19-MEL
MOLT-4 = tested on: MOLT-4
Malme-3M = tested on: Malme-3M
NCI-H226 = tested on: NCI-H226
NCI-H23 = tested on: NCI-H23
NCI-H460 = tested on: NCI-H460
NCI-H522 = tested on: NCI-H522
OVCAR-3 = tested on: OVCAR-3
OVCAR-4 = tested on: OVCAR-4
OVCAR-5 = tested on: OVCAR-5
OVCAR-8 = tested on: OVCAR-8
RPMI-8226 = tested on: RPMI-8226
RXF 393 = tested on: RXF 393
SF-268 = tested on: SF-268
SF-295 = tested on: SF-295
SF-539 = tested on: SF-539
SK-MEL-28 = tested on: SK-MEL-28
SK-MEL-2 = tested on: SK-MEL-2
SK-MEL-5 = tested on: SK-MEL-5
SK-OV-3 = tested on: SK-OV-3
SN12C = tested on: SN12C
SNB-19 = tested on: SNB-19
SNB-75 = tested on: SNB-75
SNB-78 = tested on: SNB-78
SW-620 = tested on: SW-620
TK-10 = tested on: TK-10
U-251 = tested on: U-251
UACC-257 = tested on: UACC-257
UACC-62 = tested on: UACC-62
UO-31 = tested on: UO-31
XF498 = tested on: XF498
HOP-62 = tested on: HOP-62
SR = tested on: SR

SMILES: C=CCNC(=S)N/C=C1\C(=O)Oc2ccccc2C1=O
- GI50 (786-0): 55 µM (inactive)
- GI50 (A498): 56.8 µM (inactive)
- GI50 (A549): 93.8 µM (inactive)
- GI50 (ACHN): 32.1 µM (inactive)
- GI50 (CAKI-1): 22.2 µM (inactive)
- GI50 (CCRF-CEM): > 100 µM (inactive)
- GI50 (COLO 205): > 100 µM (inactive)
- GI50 (DLD-1): 41.1 µM (inactive)
- GI50 (DMS-114): 35.2 µM (inactive)
- GI50 (DMS-273): > 100 µM (inactive)
- GI50 (EKVX): > 100 µM (inactive)
- GI50 (HCC 2998): 68.4 µM (inactive)
- GI50 (HCT-116): 49.5 µM (inactive)
- GI50 (HCT-15): 60.5 µM
- GI50 (HL-60): > 100 µM (inactive)
- GI50 (HOP-18): 46.2 µM (inactive)
- GI50 (HOP-92): 30.5 µM (inactive)
- GI50 (HT-29): > 100 µM (inactive)
- GI50 (IGROV-1): 41.6 µM (inactive)
- GI50 (K562): > 100 µM (inactive)
- GI50 (KM-20L2): > 100 µM (inactive)
- GI50 (KM12): 87.5 µM (inactive)
- GI50 (LOX IMVI): 95.5 µM (inactive)
- GI50 (LXFL 529): > 100 µM (inactive)
- GI50 (M14): 63.4 µM (inactive)
- GI50 (M19-MEL): > 100 µM (inactive)
- GI50 (MOLT-4): > 100 µM (inactive)
- GI50 (Malme-3M): 27.4 µM (inactive)
- GI50 (NCI-H226): 28.9 µM (inactive)
- GI50 (NCI-H23): > 100 µM (inactive)
- GI50 (NCI-H460): > 100 µM (inactive)
- GI50 (NCI-H522): 65.6 µM (inactive)
- GI50 (OVCAR-3): 82 µM (inactive)
- GI50 (OVCAR-4): > 100 µM (inactive)
- GI50 (OVCAR-5): 62.4 µM (inactive)
- GI50 (OVCAR-8): 58.5 µM (inactive)
- GI50 (RPMI-8226): > 100 µM (inactive)
- GI50 (RXF 393): 19.3 µM (inactive)
- GI50 (SF-268): 36 µM (inactive)
- GI50 (SF-295): > 100 µM (inactive)
- GI50 (SF-539): 55.5 µM (inactive)
- GI50 (SK-MEL-28): > 100 µM (inactive)
- GI50 (SK-MEL-2): 13.2 µM (inactive)
- GI50 (SK-MEL-5): 43.8 µM (inactive)
- GI50 (SK-OV-3): 44.4 µM (inactive)
- GI50 (SN12C): 46.5 µM (inactive)
- GI50 (SNB-19): 59.4 µM (inactive)
- GI50 (SNB-75): 18.7 µM (inactive)
- GI50 (SNB-78): 43.9 µM (inactive)
- GI50 (SW-620): 74.6 µM (inactive)
- GI50 (TK-10): 64.7 µM (inactive)
- GI50 (U-251): 59.8 µM (inactive)
- GI50 (UACC-257): > 100 µM (inactive)
- GI50 (UACC-62): 46.3 µM (inactive)
- GI50 (UO-31): 27.5 µM (inactive)
- GI50 (XF498): 18.9 µM (inactive)

SMILES: CCCCCCNC(=O)CCN(C(=O)O)S(=O)(=O)c1ccc(NC(=O)c2ccccc2)cc1
- GI50 (786-0): > 96.4 µM (inactive)
- GI50 (A498): > 100 µM (inactive)
- GI50 (A549): > 45.7 µM (inactive)
- GI50 (ACHN): > 100 µM (inactive)
- GI50 (CAKI-1): > 100 µM (inactive)
- GI50 (CCRF-CEM): 22.3 µM (inactive)
- GI50 (COLO 205): 24.8 µM (inactive)
- GI50 (DLD-1): 19.1 µM (inactive)
- GI50 (DMS-114): 20.4 µM (inactive)
- GI50 (DMS-273): > 41 µM (inactive)
- GI50 (EKVX): > 100 µM (inactive)
- GI50 (HCC 2998): > 100 µM (inactive)
- GI50 (HCT-116): 39 µM (inactive)
- GI50 (HCT-15): 22 µM
- GI50 (HL-60): 35.9 µM (inactive)
- GI50 (HOP-18): > 100 µM (inactive)
- GI50 (HOP-62): > 100 µM (inactive)
- GI50 (HOP-92): > 100 µM (inactive)
- GI50 (HT-29): > 86.1 µM (inactive)
- GI50 (IGROV-1): > 100 µM (inactive)
- GI50 (K562): > 48.2 µM (inactive)
- GI50 (KM-20L2): > 100 µM (inactive)
- GI50 (KM12): > 57.4 µM (inactive)
- GI50 (LOX IMVI): 25.1 µM (inactive)
- GI50 (LXFL 529): > 95.9 µM (inactive)
- GI50 (M14): > 100 µM (inactive)
- GI50 (M19-MEL): > 49.3 µM (inactive)
- GI50 (MOLT-4): > 42.9 µM (inactive)
- GI50 (Malme-3M): > 100 µM (inactive)
- GI50 (NCI-H226): > 100 µM (inactive)
- GI50 (NCI-H23): > 100 µM (inactive)
- GI50 (NCI-H460): 27.6 µM (inactive)
- GI50 (NCI-H522): > 20 µM (inactive)
- GI50 (OVCAR-3): > 100 µM (inactive)
- GI50 (OVCAR-4): > 100 µM (inactive)
- GI50 (OVCAR-5): > 100 µM (inactive)
- GI50 (OVCAR-8): > 61.2 µM (inactive)
- GI50 (RPMI-8226): 26.4 µM (inactive)
- GI50 (RXF 393): > 100 µM (inactive)
- GI50 (SF-268): > 78.9 µM (inactive)
- GI50 (SF-295): > 100 µM (inactive)
- GI50 (SF-539): 17.9 µM (inactive)
- GI50 (SK-MEL-28): > 100 µM (inactive)
- GI50 (SK-MEL-2): > 100 µM (inactive)
- GI50 (SK-MEL-5): > 100 µM (inactive)
- GI50 (SK-OV-3): > 100 µM (inactive)
- GI50 (SN12C): > 100 µM (inactive)
- GI50 (SNB-19): > 100 µM (inactive)
- GI50 (SNB-75): > 100 µM (inactive)
- GI50 (SNB-78): > 100 µM (inactive)
- GI50 (SR): 19.3 µM (inactive)
- GI50 (SW-620): 14.2 µM (inactive)
- GI50 (TK-10): > 100 µM (inactive)
- GI50 (U-251): 20 µM (inactive)
- GI50 (UACC-257): > 48.9 µM (inactive)
- GI50 (UACC-62): > 44.6 µM (inactive)
- GI50 (UO-31): > 100 µM (inactive)
- GI50 (XF498): > 100 µM (inactive)
